According to paper PMC3867986 (ACS medicinal chemistry letters, 2013):

Legend:
[1] = Chemical stability; settings: long-term storage, HPLC analysis
[2] = target: BirA (biotin protein ligase) (Mycobacterium tuberculosis, UniProt I6YFP0); type: binding; settings: direct stoichiometric titration of BirA, duplicate
Sequence of BirA (biotin protein ligase) (I6YFP0 whole entry, looked up): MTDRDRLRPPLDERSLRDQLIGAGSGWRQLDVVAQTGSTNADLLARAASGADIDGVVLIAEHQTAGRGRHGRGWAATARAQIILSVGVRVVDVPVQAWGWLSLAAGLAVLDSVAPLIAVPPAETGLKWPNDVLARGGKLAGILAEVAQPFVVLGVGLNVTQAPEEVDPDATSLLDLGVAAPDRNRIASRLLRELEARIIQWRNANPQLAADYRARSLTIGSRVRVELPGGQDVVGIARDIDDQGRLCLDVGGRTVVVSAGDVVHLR

Row | Structure (SMILES) | chemical stability [1] | ΔH [2] [kcal/mol]
1 | CCN(CC)CC.Nc1ncnc2c1ncn2[C@@H]1O[C@H](CCS(=O)(=O)NC(=O)CCCC[C@@H]2SC[C@@H]3NC(=O)N[C@@H]32)[C@@H](O)[C@H]1O [Compound 10] | no degradation upon long-term storage | 
2 | CCN(CC)CC.Nc1nccc2c1ncn2[C@@H]1O[C@H](COS(=O)(=O)NC(=O)CCCC[C@@H]2SC[C@@H]3NC(=O)N[C@@H]32)[C@@H](O)[C@H]1O [Compound 11] |  | -21.2
3 | CC(C)(C)C#Cc1nc(N)c2ncn([C@@H]3O[C@H](COS(=O)(=O)NC(=O)CCCC[C@@H]4SC[C@@H]5NC(=O)N[C@@H]54)[C@@H](O)[C@H]3O)c2n1.CCN(CC)CC [Compound 13] |  | -13.5
